# In US7531668B2, “2-arylcarboxamide-nitrogenous heterocycle compound” (Banyu Pharmaceutical Co., Ltd., priority 2004, dated 2009):
# Counter-ions that a name gives are not always drawn.
# Target: T1, human MCH-1R (Homo sapiens, UniProt Q99705)
# T1 construct: expressed in transfected cells; host or cells: CHO-K1 (American Type Culture Collection), vector pEF/mic/cyto (Invitrogen)
# Assay: MCH binding inhibition test ([125I]MCH binding to membranes of MCH-1R expressing CHO-K1 cells)
# Details: 50% inhibition concentration to the specific [125I]MCH binding; 50 pM [125I]MCH, membranes of MCH-1R expression CHO-K1 cells, 25° C., one hour, pH 7.4
# Text: Pharmacological Test Example 1 (MCH Binding Inhibition Test)
# A human MCH-1R encoding cDNA sequence [FEBS Letters, Vol. 398, 253 (1996); Biochimica et Biophisica Acta, Vol. 1401, 216 (1998)] was cloned to a plasmid vector pEF/mic/cyto (Invitrogen Corporation). The obtained expression vector was transfected to host cells CHO-K1 (American Type Culture Collection) using Lipofectamine Plus Reagent (Life Technology Inc.) to provide MCH-1R expression cells.
# Membrane samples prepared from the MCH-1R expression cells were incubated with each test compound and 50 pM of [^125I]MCH (NEN Co.), in an assay buffer (50 mM Tris buffer comprising 10 mM magnesium chloride, 2 mM ethylenediamine tetraacetate, 0.01% bacitracin and 0.2% bovine serum albumin; pH 7.4) at 25° C. for an hour, followed by filtration through a glass filter GF/C (Wattman Co.). After washing the glass filter with 50 mM Tris buffer (pH 7.4) comprising 10 mM magnesium chloride, 2 mM ethylenediamine tetraacetate and 0.04% Tween-20, the radioactive activity on the glass filter was measured. The non-specific binding was measured in the presence of 1 μM human MCH and 50% inhibition concentration (IC50 value) of each test compound to the specific [^125I,]MCH binding was determined.
# T1 sequence (Q99705 whole entry): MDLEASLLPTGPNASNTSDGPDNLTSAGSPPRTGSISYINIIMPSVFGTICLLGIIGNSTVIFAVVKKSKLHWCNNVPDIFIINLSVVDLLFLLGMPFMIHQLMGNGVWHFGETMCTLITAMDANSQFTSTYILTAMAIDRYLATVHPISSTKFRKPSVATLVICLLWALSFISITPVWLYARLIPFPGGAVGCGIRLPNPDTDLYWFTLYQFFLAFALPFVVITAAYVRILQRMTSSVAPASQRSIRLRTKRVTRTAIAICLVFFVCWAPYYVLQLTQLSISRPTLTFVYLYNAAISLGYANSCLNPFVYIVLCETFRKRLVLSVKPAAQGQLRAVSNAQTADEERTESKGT
row,IC50 [nM],SMILES
1,9.6,"O=C(Nc1ccc(CN2CCOCC2)cc1)c1cc2cc(OCc3ccccc3)ccc2[nH]1 [Example 1-1, 5-(benzyloxy)-N-[4-(morpholinomethyl)phenyl]-1H-indole-2-carboxamide hydrochloride]"
2,5.6,"CCN(CC)Cc1ccc(NC(=O)c2cc3cc(OCc4ccccc4)ccc3[nH]2)cc1 [Example 1-3, 5-(benzyloxy)-N-{4-[(diethylamino)methyl]phenyl}-1H-indole-2-carboxamide]"
3,2.6,"O=C(Nc1ccc(CN2CCCC2)cc1)c1cc2cc(OCc3ccccc3)ccc2[nH]1 [Example 2-6, 5-(benzyloxy)-N-[4-(1-pyrrolidinylmethyl)phenyl]-1H-indole-2-carboxamide trifluoroacetate]"
4,4.6,"COCCN(C)Cc1ccc(NC(=O)c2cc3cc(OCc4ccccc4)ccc3[nH]2)cc1 [Example 2-10, 5-(benzyloxy)-N-(4-{[(2-methoxyethyl)(methyl)amino]methyl}phenyl)-1H-indole-2-carboxamide]"
